Data as given in US5066676A, “Sulfonamido derivative inhibiting the aldose reductase enzyme system and pharmaceutical compositions containing them” (Laboratori Baldacci SpA, priority 1987, dated 1991).

Columns and labels:
[1] = Acute toxicity: mice; settings: in vivo, mouse (Swiss), read-out: % Death
Method: (§1) The toxicity tests after only one administration have been carried out on two animal species (mice and rats), using two administration routes (os, iv).
For these tests Swiss mice have been used, of both sexes, having average weight 20 g, fasted after 18 hours and administered with water ad libitum. The animals were maintained under standard environment conditions (temperature: 20°-22° C. and moisture 50%).
(§2) The compounds have been administered by gastric probe, suspended in Methocell or by injection (iv) dissolved in physiological solution with the addition of sodium bicarbonate.
(§3) The animals have been kept under observation for 15 days. The controls have been carried out several times in the first days and twice a day in the next days. In the table 1 the conditions used and the results obtained are reported.

[2] = Acute toxicity: rat; settings: in vivo, rat (Wistar), 20 ml/kg, read-out: % Death
From the text: as §1, §2, §3
Wistar rats, of both sexes have been used of average weight of 120 g, fasted after 18 hours and with water at libitum. The conditions of stalling and the administration ways were the same as those reported in the preceeding paragraph (acute toxicity: mouse).

[3] = biological target: T1, aldose reductase (Bos taurus, UniProt P16116); test: In vitro inhibition of aldose reductase activity of raw extracts from bovine crystalline lens; format: biochemical; settings: for IC50: glyceraldehyde substrate, NADPH, pH 6.8, 37° C., read-out: IC50 on the aldose reductase activity of raw extracts originating from bovine crystalline lens; for inhibiting action of the aldose reductase activity (in words): bovine lens extract
T1 construct: 4 bovine crystalline lenses (8 g) are homogenized by means of Potter in ice bath; from tissue; host or cells: bovine crystalline lens
Method: "In vitro" tests have been carried out to evalute the inhibition of the aldose reductase activity, prepared from the extract of bovine crystalline lenses.
PREPARATION OF THE RAW EXTRACTS
4 bovine crystalline lenses (8 g) are homogenized by means of Potter in ice bath with 40 ml of 50 mM phosphate buffer, pH 6.8, containing 2-mercaptoethanol pH ([…]). After centrifugation (12.000×g -20 min-4° C.) the supernatant is brought to 40% saturation with an ammonium sulphate and centrifugated again (14.000×g). The supernatant is then brought to the 80% saturation ((NH4)2 SO4) and, after centrifugation for 20 minutes and at 14.000×g, the sedimented matter is recovered and suspended in 7 ml of phosphate buffer. The enzymatic preparation is dialyzed by ultrafiltration with AMICON ultrafiltration cell.
DOSAGE OF THE ENZYMATIC ACTIVITY
The reference cuvette contains all the several substances apart from the substrate.

[4] = system: galactosemic cataract in the rat; test: Action on the appearance of the galactosemic cataract (rat); format: in vivo
Method: (§4) With the compound bearing the abbreviation ARI 6 the following tests have been carried out in the rat and in the rabbit.
Action on the appearance of the galactosemic cataract (rat)
Effects of the administration of ARI-6 (5 and 25 mg/kg/die, os)
on the appearance of the galactosemic cataract in the rat.
[…] In the brackets the number of animals for each group is indicated.
The diet contains D-galactose 50%.
Effects of the administration of ARI-1 (5 and 25 mg/kg/die, os)

[5] = system: diabetic cataract in the rat; test: Action on the appearance of the diabetic cataract (rat); format: in vivo; settings: Table 7, 25 mg/kg/die per os
Method: as §4
Action on the appearance of the diabetic cataract (rat).
Effects of the administration of ARI 6 (25 mg/kg/die, per os)
on the appearance of the diabetic cataract in the rat.
The values are expressed as percentages. Within brackets there are indicated the animals for each group.
Effects of the administration of ARI-1 (25 mg/kg/die, per os)

[6] = Table 6, 5 mg/kg/die os, day 5 of diet
[7] = Table 6, 5 mg/kg/die os, day 10 of diet, * p < 0.05 vs controls
[8] = Table 6, 5 mg/kg/die os, day 15 of diet, * p < 0.05 vs controls
[9] = Table 6, 5 mg/kg/die os, day 20 of diet, * p < 0.05 vs controls
[10] = Table 6, 5 mg/kg/die os, day 25 of diet, * p < 0.05 vs controls
[11] = Table 6, 5 mg/kg/die os, day 30 of diet, * p < 0.05 vs controls
[12] = Table 6, 5 mg/kg/die os, day 35 of diet, * p < 0.05 vs controls
[13] = Table 6, 5 mg/kg/die os, day 40 of diet, * p < 0.05 vs controls
[14] = Table 6, 5 mg/kg/die os, day 45 of diet, * p < 0.05 vs controls
[15] = Table 6, 5 mg/kg/die os, day 50 of diet
[16] = Table 6, 25 mg/kg/die os, day 5 of diet
[17] = Table 6, 25 mg/kg/die os, day 10 of diet, * p < 0.05 vs controls
[18] = Table 6, 25 mg/kg/die os, day 15 of diet, * p < 0.05 vs controls
[19] = Table 6, 25 mg/kg/die os, day 20 of diet, * p < 0.05 vs controls
[20] = Table 6, 25 mg/kg/die os, day 25 of diet, * p < 0.05 vs controls
[21] = Table 6, 25 mg/kg/die os, day 30 of diet, * p < 0.05 vs controls
[22] = Table 6, 25 mg/kg/die os, day 35 of diet, * p < 0.05 vs controls
[23] = Table 6, 25 mg/kg/die os, day 40 of diet, * p < 0.05 vs controls
[24] = Table 6, 25 mg/kg/die os, day 45 of diet, * p < 0.05 vs controls
[25] = Table 6, 25 mg/kg/die os, day 50 of diet
[26] = day 10 from streptozotocine, * p < 0.05 vs controls
[27] = day 15 from streptozotocine, * p < 0.05 vs controls
[28] = day 20 from streptozotocine, * p < 0.05 vs controls
[29] = day 25 from streptozotocine, * p < 0.05 vs controls
[30] = day 30 from streptozotocine, * p < 0.05 vs controls
[31] = day 35 from streptozotocine, * p < 0.05 vs controls
[32] = day 40 from streptozotocine, * p < 0.05 vs controls
[33] = day 45 from streptozotocine, * p < 0.05 vs controls
[34] = day 50 from streptozotocine, * p < 0.05 vs controls

Work on Cc1cc(C)c(S(=O)(=O)N(C)CC(=O)O)cc1S(=O)(=O)N(C)CC(=O)O [ARI 1, 4,6-dimethyl-1,3-bis (N-methyl-N-caboxymethl) sulfamoybenzene] yielded a mortality at 360 h ([1]; po, 5000 mg/kg/os) of 0%, a mortality at 360 h ([1]; 500 mg/kg/iv, 20 ml/kg) of 0% and a mortality at 360 h ([2]; po, 5000 mg/kg/os) of 0%. For the same molecule, the mortality at 360 h ([2]; 500 mg/kg/iv) was 0%, the IC50 [3] was 3600 nM and the “number of eyes with cataract on the total number of observed eyes” value (from here on “number … on the total number of observed eyes”) [4, 6] was 0/20. For the same molecule, the “percentage of eyes with cataract” value [4, 6] was 0.0%, the “number … on the total number of observed eyes” value [4, 7] was 0/20 and the “percentage of eyes with cataract” value [4, 7] was 0.0%. For the same molecule, the “number … on the total number of observed eyes” value [4, 8] was 0/20, the “percentage of eyes with cataract” value [4, 8] was 0.0% and the “number … on the total number of observed eyes” value [4, 9] was 0/20. The “percentage of eyes with cataract” value [4, 9] was 0.0%, the “number … on the total number of observed eyes” value [4, 10] was 3/20 and the “percentage of eyes with cataract” value [4, 10] was 15.0%. For the same molecule, the “number … on the total number of observed eyes” value [4, 11] was 4/20, the “percentage of eyes with cataract” value [4, 11] was 20.0% and the “number … on the total number of observed eyes” value [4, 12] was 8/20. The “percentage of eyes with cataract” value [4, 12] was 40.0%, the “number … on the total number of observed eyes” value [4, 13] was 8/20 and the “percentage of eyes with cataract” value [4, 13] was 100.0%. For the same molecule, the “number … on the total number of observed eyes” value [4, 14] was 20/20, the “percentage of eyes with cataract” value [4, 14] was 100.0% and the “number … on the total number of observed eyes” value [4, 15] was 20/20. For the same molecule, the “percentage of eyes with cataract” value [4, 15] was 100.0%, the “number … on the total number of observed eyes” value [4, 16] was 0/20 and the “percentage of eyes with cataract” value [4, 16] was 0.0%. The “number … on the total number of observed eyes” value [4, 17] was 0/20, the “percentage of eyes with cataract” value [4, 17] was 0.0% and the “number … on the total number of observed eyes” value [4, 18] was 0/20. For the same molecule, the “percentage of eyes with cataract” value [4, 18] was 0.0%, the “number … on the total number of observed eyes” value [4, 19] was 0/20 and the “percentage of eyes with cataract” value [4, 19] was 0.0%. For the same molecule, the “number … on the total number of observed eyes” value [4, 20] was 0/20, the “percentage of eyes with cataract” value [4, 20] was 0.0% and the “number … on the total number of observed eyes” value [4, 21] was 0/20. For the same molecule, the “percentage of eyes with cataract” value [4, 21] was 0.0%, the “number … on the total number of observed eyes” value [4, 22] was 0/20 and the “percentage of eyes with cataract” value [4, 22] was 0.0%. The “number … on the total number of observed eyes” value [4, 23] was 3/20, the “percentage of eyes with cataract” value [4, 23] was 15.0% and the “number … on the total number of observed eyes” value [4, 24] was 5/20. The “percentage of eyes with cataract” value [4, 24] was 25.0%, the “number … on the total number of observed eyes” value [4, 25] was 20/20 and the “percentage of eyes with cataract” value [4, 25] was 100.0%. The “number of eyes with cataract with respect the total number of observed eyes” value ([5]; day 5 from streptozotocine) was 0/20, the “percentage of eyes with cataract” value ([5]; day 5 from streptozotocine) was 0.0% and the “number of eyes with cataract with respect the total number of observed eyes” value [5, 26] was 0/20. For the same molecule, the “percentage of eyes with cataract” value [5, 26] was 0.0%, the “number of eyes with cataract with respect the total number of observed eyes” value [5, 27] was 0/20 and the “percentage of eyes with cataract” value [5, 27] was 0.0%. For the same molecule, the “number of eyes with cataract with respect the total number of observed eyes” value [5, 28] was 0/20, the “percentage of eyes with cataract” value [5, 28] was 0.0% and the “number of eyes with cataract with respect the total number of observed eyes” value [5, 29] was 0/20. The “percentage of eyes with cataract” value [5, 29] was 0.0%, the “number of eyes with cataract with respect the total number of observed eyes” value [5, 30] was 0/20 and the “percentage of eyes with cataract” value [5, 30] was 0.0%. The “number of eyes with cataract with respect the total number of observed eyes” value [5, 31] was 0/20, the “percentage of eyes with cataract” value [5, 31] was 0.0% and the “number of eyes with cataract with respect the total number of observed eyes” value [5, 32] was 4/20. For the same molecule, the “percentage of eyes with cataract” value [5, 32] was 20.0%, the “number of eyes with cataract with respect the total number of observed eyes” value [5, 33] was 6/20 and the “percentage of eyes with cataract” value [5, 33] was 30.0%. The “number of eyes with cataract with respect the total number of observed eyes” value [5, 34] was 20/20 and the “percentage of eyes with cataract” value [5, 34] was 100.0%.
In the case of CN(CC(=O)O)S(=O)(=O)c1ccc2oc3ccc(F)cc3c(=O)c2c1 [ARI 8, 7-fluoro-2-(N-methyl-N-carboxymethyl)sulfamoylxanthone], the mortality at 360 h ([1]; po, 5000 mg/kg/os) is reported as 10%, the mortality at 360 h ([1]; 400 mg/kg/iv) is reported as 0% and the mortality at 360 h ([2]; po, 5000 mg/kg/os) is reported as 30%. For the same molecule, the mortality at 360 h ([2]; 500 mg/kg/iv) was 40%, the mortality at 360 h ([2]; 400 (unit and route not given)) was 0% and the “inhibiting action of the aldose reductase activity (in words)” value [3] was “higher activity, with respect to the of sorbinil and of ARI 1”. The IC50 [3] was 1000 nM.
With CN(CC(=O)O)S(=O)(=O)c1ccc2oc3ccc(S(=O)(=O)N(C)CC(=O)O)cc3c(=O)c2c1 [ARI 9, 2,7-bis (N-methyl-N-carboxymethyl) sulfamoylxanthone] the “inhibiting action of the aldose reductase activity (in words)” value [3] was “higher activity, with respect to the of sorbinil and of ARI 1” and the IC50 [3] was 1000 nM.
